Measurements from patent US20230143612A1 (Arbutus Biopharma Corporation, priority 2020, published 2023).

These molecules were tested against PD-L1 His protein / PD-1 Fc protein (Homo sapiens, UniProt Q9NZQ7) (assay: HTRF Assay (PD-1/PD-L1 interaction)). Details: PD-L1 His 6 nM, PD-1 Fc 6 nM.
Format: binding
In short: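 Compounds tested from 20 μM down to 0.001 μM (3-fold) against 6 nM PD-L1 His and 6 nM PD-1 Fc, 15 min room temperature incubation. Detection after 1 h at room temperature with Tb cryptate anti-6HIS and XL665 anti-human IgG reagents (mixture at 0.35 nM and 6.7 nM), HTRF signal.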

Chain of PD-L1 His protein / PD-1 Fc protein (Q9NZQ7 19-238 limits assumed): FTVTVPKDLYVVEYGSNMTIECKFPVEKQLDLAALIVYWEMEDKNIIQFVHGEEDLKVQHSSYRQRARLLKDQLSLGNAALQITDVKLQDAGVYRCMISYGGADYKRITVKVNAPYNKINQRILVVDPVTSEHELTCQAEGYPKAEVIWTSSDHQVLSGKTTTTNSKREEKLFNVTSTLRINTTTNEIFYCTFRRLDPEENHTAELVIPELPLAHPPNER

First: COc1nc(-c2cccc(-c3cccc(-c4ccc5nc(CNC[C@H](C)O)cn5n4)c3Cl)c2Cl)ccc1CNC[C@H](C)O [Example 340, (2S)-1-[[6-[2-Chloro-3-[2-chloro-3-[2-[[[(2S)-2-hydroxypropyl]amino]methyl]imidazo[1,2-b]pyridazin-6-yl]phenyl]phenyl]-2-methoxy-3-pyridyl]methylamino]propan-2-ol]
Second: COc1nc(-c2cccc(-c3cccc(-c4ccc5nc(C(=O)NCCc6c[nH]cn6)cn5n4)c3Cl)c2Cl)ccc1CNC[C@@H]1CCC(=O)N1 [Example 440, 6-[2-Chloro-3-[2-chloro-3-[6-methoxy-5-[[[(2S)-5-oxopyrrolidin-2-yl]methylamino]methyl]-2-pyridyl]phenyl]phenyl]-N-[2-(1H-imidazol-4-yl)ethyl]imidazo[1,2-b]pyridazine-2-carboxamide]
The IC50 of the first is 7.7-fold lower: 3.5 nM for the first, 27 nM for the second. The first is the more potent here.

Compared with COc1cc(-c2cccc(-c3cccc(-c4ccc(CNC[C@@H]5CCC(=O)N5)c(OC)n4)c3Cl)c2Cl)cc2c1CN(CCO)CC2 [Example 455, (S)-5-((((6-(2,2′-Dichloro-3′-(2-(2-hydroxyethyl)-8-methoxy-1,2,3,4-tetrahydroisoquinolin-6-yl)-[1,1′-biphenyl]-3-yl)-2-methoxypyridin-3-yl)methyl)amino)methyl)pyrrolidin-2-one], COc1cc(-c2cccc(-c3cccc(-c4ccc(CNC[C@@H]5CCC(=O)N5)c(OC)n4)c3Cl)c2Cl)cc2c1CN(CC(O)C(C)C)CC2 (stereo partly drawn) [Example 488, (5S)-5-((((6-(2,2′-Dichloro-3′-(2-(2-hydroxy-3-methylbutyl)-8-methoxy-1,2,3,4-tetrahydroisoquinolin-6-yl)-[1,1′-biphenyl]-3-yl)-2-methoxypyridin-3-yl)methyl)amino)methyl)pyrrolidin-2-one] is 60-fold lower in IC50: 12 nM for the first, 0.2 nM for the second.

Compared with COc1nc(-c2cccc(-c3cccc(-c4ccn5c(=O)c(CNC[C@@H]6CCC(=O)N6)cnc5c4)c3Cl)c2Cl)ccc1CNC1(C(=O)O)CC1 [Example 115, (S)-1-(((6-(2,2′-Dichloro-3′-(4-oxo-3-((((5-oxopyrrolidin-2-yl)methyl)amino)methyl)-4H-pyrido[1,2-a]pyrimidin-8-yl)-[1,1′-biphenyl]-3-yl)-2-methoxypyridin-3-yl)methyl)amino)cyclopropane-1-carboxylic acid], COc1nc(-c2cccc(-c3cccc(-c4ccn5c(=O)c(CNC[C@@H]6CCC(=O)N6)cnc5c4)c3Cl)c2Cl)ccc1CN1CC(CO)(CO)C1 [Example 159, (S)-8-(3′-(5-((3,3-Bis(hydroxymethyl)azetidin-1-yl)methyl)-6-methoxypyridin-2-yl)-2,2′-dichloro-[1,1′-biphenyl]-3-yl)-3-((((5-oxopyrrolidin-2-yl)methyl)amino)methyl)-4H-pyrido[1,2-a]pyrimidin-4-one] is 1.9-fold lower in IC50: 2.5 nM for the first, 1.3 nM for the second.

Compared with O=C1CC[C@@H](CNCc2ccc3nc(-c4cccc(-c5cccc(-c6cc(=O)n7cc(CNC[C@@H]8CCC(=O)N8)ccc7n6)c5Cl)c4Cl)cc(=O)n3c2)N1 [Example 60, 2,2′-(2,2′-Dichloro-[1,1′-biphenyl]-3,3′-diyl)bis(7-(((((S)-5-oxopyrrolidin-2-yl)methyl)amino)methyl)-4H-pyrido[1,2-a]pyrimidin-4-one)], COc1nc(-c2cccc(-c3cccc(-c4cnc5c(CNC[C@@H]6CCC(=O)N6)cnn5c4)c3Cl)c2Cl)ccc1CNC[C@@H]1CCC(=O)N1 [Example 310, (S)-5-((((6-(2,2′-Dichloro-3′-(3-(((((S)-5-oxopyrrolidin-2-yl)methyl)amino)methyl)pyrazolo[1,5-a]pyrimidin-6-yl)-[1,1′-biphenyl]-3-yl)-2-methoxypyridin-3-yl)methyl)amino)methyl)pyrrolidin-2-one] is 2300-fold lower in IC50: 460 nM for the first, 0.2 nM for the second. The second is the more potent here.

Compared with COc1nc(-c2cccc(-c3cccc(-c4cc5c(=O)n(C)c(CNCCO)nn5c4)c3Cl)c2Cl)ccc1CNC[C@@H]1CCC(=O)N1 [Example 351, (S)-6-(2,2′-Dichloro-3′-(6-methoxy-5-((((5-oxopyrrolidin-2-yl)methyl)amino)methyl)pyridin-2-yl)-[1,1′-biphenyl]-3-yl)-2-(((2-hydroxyethyl)amino)methyl)-3-methylpyrrolo[2,1-f][1,2,4]triazin-4(3H)-one], COc1nc(-c2cccc(-c3cccc(-c4cc5c(=O)n(C)c(CNC(C)(C)C)nn5c4)c3Cl)c2Cl)ccc1CNC[C@@H]1CCC(=O)N1 [Example 479, 2-[(tert-Butylamino)methyl]-6-[2-chloro-3-[2-chloro-3-[6-methoxy-5-[[[(2S)-5-oxopyrrolidin-2-yl]methylamino]methyl]-2-pyridyl]phenyl]phenyl]-3-methyl-pyrrolo[2,1-f][1,2,4]triazin-4-one] is 14-fold lower in IC50: 200 nM for the first, 14 nM for the second.

Compared with COc1nc(-c2cccc(-c3cccc(-c4cc5c(=O)n(C)c(CNC6CC(C)(O)C6)nn5c4)c3Cl)c2Cl)cc(F)c1CNC[C@@H]1CCC(=O)N1 (stereo partly drawn) [compound 480, (S)-6-(2,2′-dichloro-3′-(4-fluoro-6-methoxy-5-((((5-oxopyrrolidin-2-yl)methyl)amino)methyl)pyridin-2-yl)-[1,1′-biphenyl]-3-yl)-2-(((3-hydroxy-3-methylcyclobutyl)amino)methyl)-3-methylpyrrolo[2,1-f][1,2,4]triazin-4(3H)-one], COc1nc(-c2cccc(-c3cccc(-c4cc5c(=O)n(C)c(CN[C@H]6CC[C@H](O)CC6)nn5c4)c3Cl)c2Cl)ccc1CNC[C@@H]1CCC(=O)N1 [Example 486, 6-[2-Chloro-3-[2-chloro-3-[6-methoxy-5-[[[(2S)-5-oxopyrrolidin-2-yl]methylamino]methyl]-2-pyridyl]phenyl]phenyl]-2-[[(4-hydroxycyclohexyl)amino]methyl]-3-methyl-pyrrolo[2,1-f][1,2,4]triazin-4-one] is 170-fold lower in IC50: 69 nM for the first, 0.4 nM for the second.

COc1ccc(CNCc2cnc3cc(-c4cccc(-c5cccc(-c6ccc(CNC[C@@H]7CCC(=O)N7)c(OC)n6)c5Cl)c4Cl)ccn3c2=O)c(OC)c1 [Example 138, (S)-8-(2,2′-Dichloro-3′-(6-methoxy-5-((((5-oxopyrrolidin-2-yl)methyl)amino)methyl)pyridin-2-yl)-[1,1′-biphenyl]-3-yl)-3-(((2,4-dimethoxybenzyl)amino)methyl)-4H-pyrido[1,2-a]pyrimidin-4-one] and COc1nc(-c2cccc(-c3cccc(-c4ccn5c(=O)c(CNCC(C)(C)O)cnc5c4)c3Cl)c2Cl)ccc1CNC[C@@H]1CCC(=O)N1 [Example 133, (S)-8-(2,2′-Dichloro-3′-(6-methoxy-5-((((5-oxopyrrolidin-2-yl)methyl)amino)methyl)pyridin-2-yl)-[1,1′-biphenyl]-3-yl)-3-(((2-hydroxy-2-methylpropyl)amino)methyl)-4H-pyrido[1,2-a]pyrimidin-4-one] are within 1.5-fold of each other in IC50: 1.4 nM for the first, 1.5 nM for the second.

First: Cc1c(COc2cc(OCc3cncc(C#N)c3)c(CNC[C@H]3CCC(=O)N3)cc2Cl)cccc1-c1cccc(-c2ccn3c(=O)c(CNC[C@H]4CCC(=O)N4)cnc3c2)c1C [Example 13, 5-((4-Chloro-5-((2,2′-dimethyl-3′-(4-oxo-3-(((((R)-5-oxopyrrolidin-2-yl)methyl)amino)methyl)-4H-pyrido[1,2-a]pyrimidin-8-yl)-[1,1′-biphenyl]-3-yl)methoxy)-2-(((((R)-5-oxopyrrolidin-2-yl)methyl)amino)methyl)phenoxy)methyl)nicotinonitrile]
Second: Cc1c(-c2ccn3c(=O)c(CNC[C@@H]4CCC(=O)N4)cnc3c2)cccc1-c1cccc(-c2ccc3c(c2)CC(NC(=O)[C@@H](N)CO)C3)c1Cl (mixture of isomers) [Example 45, (2S)-2-Amino-N-(5-(2-chloro-2′-methyl-3′-(4-oxo-3-(((((S)-5-oxopyrrolidin-2-yl)methyl)amino)methyl)-4H-pyrido[1,2-a]pyrimidin-8-yl)-[1,1′-biphenyl]-3-yl)-2,3-dihydro-1H-inden-2-yl)-3-hydroxypropanamide]
The IC50 of the first is 850-fold lower: 0.8 nM for the first, 680 nM for the second. The first is the more potent here.

COc1nc(-c2cccc(-c3cccc(-c4cc5ncc(CNC[C@H](C)O)cc5cn4)c3Cl)c2Cl)ccc1CNC[C@@H]1CCC(=O)N1 [Example 333, (S)-5-((((6-(2,2′-Dichloro-3′-(3-((((S)-2-hydroxypropyl)amino)methyl)-1,6-naphthyridin-7-yl)-[1,1′-biphenyl]-3-yl)-2-methoxypyridin-3-yl)methyl)amino)methyl)pyrrolidin-2-one] and COC(=O)[C@H]1CCN(Cc2c(C)nc3cc(-c4cccc(-c5cccc(-c6ccc(CNC[C@@H]7CCC(=O)N7)c(OC)n6)c5Cl)c4Cl)ccn3c2=O)C1 [Example 265, (S)-Methyl 1-((8-(2,2′-dichloro-3′-(6-methoxy-5-(((((S)-5-oxopyrrolidin-2-yl)methyl)amino)methyl)pyridin-2-yl)-[1,1′-biphenyl]-3-yl)-2-methyl-4-oxo-4H-pyrido[1,2-a]pyrimidin-3-yl)methyl)pyrrolidine-3-carboxylate] are the same in IC50: 0.7 nM for the first, 0.7 nM for the second.

Molecule COc1nc(-c2cccc(-c3cccc(-c4ccn5c(=O)c(CN[C@H]6C[C@](C)(O)C6)c(C)nc5c4)c3Cl)c2Cl)ccc1CN[C@H]1C[C@](C)(O)C1 [Example 205, 8-(2,2′-Dichloro-3′-(5-((((1r,3r)-3-hydroxy-3-methylcyclobutyl)amino)methyl)-6-methoxypyridin-2-yl)-[1,1′-biphenyl]-3-yl)-3-((((1r,3r)-3-hydroxy-3-methylcyclobutyl)amino)methyl)-2-methyl-4H-pyrido[1,2-a]pyrimidin-4-one] has an IC50 of 0.9 nM.
